Laboratory results: patent publication EP4122499A1, “FIBROBLAST ACTIVATION PROTEIN INHIBITORS AND USE THEREOF” (3B Pharmaceuticals GmbH, priority 2021, dated 2023)

Tests used:
HEK-FAP cells = target: T1, HEK-FAP cells (Homo sapiens, UniProt Q12884); assay: LigandTracer assay with 111In-labeled compounds; type: binding; conditions: 111In-labeled compound
T1 construct: expressed in transfected cells; host or cells: HEK293
T1 sequence (Q12884 1-760): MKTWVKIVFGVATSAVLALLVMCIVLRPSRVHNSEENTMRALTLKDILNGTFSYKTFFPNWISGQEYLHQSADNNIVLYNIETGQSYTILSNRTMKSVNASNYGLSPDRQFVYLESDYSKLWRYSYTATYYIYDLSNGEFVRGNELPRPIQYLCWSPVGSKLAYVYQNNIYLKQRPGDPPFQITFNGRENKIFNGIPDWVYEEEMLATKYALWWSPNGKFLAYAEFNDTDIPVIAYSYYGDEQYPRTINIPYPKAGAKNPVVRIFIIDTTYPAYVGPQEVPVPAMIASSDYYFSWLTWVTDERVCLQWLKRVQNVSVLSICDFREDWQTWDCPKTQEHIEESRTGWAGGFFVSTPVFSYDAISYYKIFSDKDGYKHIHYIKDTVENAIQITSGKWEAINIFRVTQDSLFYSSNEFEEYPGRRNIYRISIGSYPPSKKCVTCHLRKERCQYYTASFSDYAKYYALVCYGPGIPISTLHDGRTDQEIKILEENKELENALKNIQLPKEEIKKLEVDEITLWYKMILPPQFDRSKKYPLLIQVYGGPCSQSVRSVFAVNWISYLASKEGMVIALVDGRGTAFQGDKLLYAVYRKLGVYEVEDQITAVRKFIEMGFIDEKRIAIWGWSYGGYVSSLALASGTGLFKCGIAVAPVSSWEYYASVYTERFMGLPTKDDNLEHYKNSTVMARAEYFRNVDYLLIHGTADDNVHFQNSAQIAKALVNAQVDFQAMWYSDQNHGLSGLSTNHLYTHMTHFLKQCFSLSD
Experimental: HEK293 cells (human embryonic kidney cells) were engineered to express the human FAP. […] Cell concentrations were adjusted to 3 x 10^5 mL^-1, and 3.000 µL of the suspension was dispensed into a poly-lysine-coated, clear cell dish (10cm). Approximately 24 hours after re-seeding, the medium was replaced by assay medium (Ham's medium with 20 mM HEPES) containing 1 % FCS. The dish was placed in the LigandTracer® device and a baseline measurement was obtained using the LigandTracer® Control software (version 2.4). […] To determine the dissociation rate (kd) the cells were washed and subsequently incubated with fresh assay medium for several hours. […] Table 14 Results of the LigandTracer® assay

recombinant human PREP = target: T2, recombinant human PREP (Homo sapiens, UniProt P48147); assay: PREP protease activity assay; type: biochemical; conditions: 50 µM Z-GP-AMC substrate
T2 construct: purchased R&D systems 4308-SE
T2 sequence (P48147 1-710): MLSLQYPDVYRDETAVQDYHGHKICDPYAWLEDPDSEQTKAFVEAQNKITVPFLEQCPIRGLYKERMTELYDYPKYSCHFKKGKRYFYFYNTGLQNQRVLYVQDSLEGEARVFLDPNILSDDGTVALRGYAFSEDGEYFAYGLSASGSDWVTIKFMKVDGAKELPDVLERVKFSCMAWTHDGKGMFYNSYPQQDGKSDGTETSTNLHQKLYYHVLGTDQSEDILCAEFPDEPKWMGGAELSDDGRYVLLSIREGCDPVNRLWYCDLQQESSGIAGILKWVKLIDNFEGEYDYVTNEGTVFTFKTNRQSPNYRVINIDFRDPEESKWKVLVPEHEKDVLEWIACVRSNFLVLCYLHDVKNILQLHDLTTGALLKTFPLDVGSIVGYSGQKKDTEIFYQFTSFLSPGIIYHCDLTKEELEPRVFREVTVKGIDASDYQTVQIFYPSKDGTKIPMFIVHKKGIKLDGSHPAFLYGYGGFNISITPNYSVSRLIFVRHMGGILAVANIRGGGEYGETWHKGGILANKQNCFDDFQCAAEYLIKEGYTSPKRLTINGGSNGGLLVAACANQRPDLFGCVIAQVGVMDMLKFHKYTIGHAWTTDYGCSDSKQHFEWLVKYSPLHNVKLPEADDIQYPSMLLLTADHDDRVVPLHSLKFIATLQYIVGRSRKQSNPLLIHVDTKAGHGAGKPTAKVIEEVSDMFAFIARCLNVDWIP
Experimental: (§1) The PREP activity assay was performed using the FACS buffer (PBS including 1% FBS, Sigma-Aldrich, Cat# D8537). […] The DPP4 activity assay was performed in DPP assay buffer (25 mM Tris, pH 8.0).
(§2) Four parameter logistic (4PL) curve fitting and pIC50 calculations were performed using ActivityBase software.

Recombinant mouse FAP = target: T3, Recombinant mouse FAP (Mus musculus, UniProt P97321); assay: FRET-based FAP protease activity assay (mouse); type: biochemical; conditions: FRET-peptide substrate, 37°C
T3 construct: purchased R&D systems 8647-SE
T3 sequence (P97321 1-761): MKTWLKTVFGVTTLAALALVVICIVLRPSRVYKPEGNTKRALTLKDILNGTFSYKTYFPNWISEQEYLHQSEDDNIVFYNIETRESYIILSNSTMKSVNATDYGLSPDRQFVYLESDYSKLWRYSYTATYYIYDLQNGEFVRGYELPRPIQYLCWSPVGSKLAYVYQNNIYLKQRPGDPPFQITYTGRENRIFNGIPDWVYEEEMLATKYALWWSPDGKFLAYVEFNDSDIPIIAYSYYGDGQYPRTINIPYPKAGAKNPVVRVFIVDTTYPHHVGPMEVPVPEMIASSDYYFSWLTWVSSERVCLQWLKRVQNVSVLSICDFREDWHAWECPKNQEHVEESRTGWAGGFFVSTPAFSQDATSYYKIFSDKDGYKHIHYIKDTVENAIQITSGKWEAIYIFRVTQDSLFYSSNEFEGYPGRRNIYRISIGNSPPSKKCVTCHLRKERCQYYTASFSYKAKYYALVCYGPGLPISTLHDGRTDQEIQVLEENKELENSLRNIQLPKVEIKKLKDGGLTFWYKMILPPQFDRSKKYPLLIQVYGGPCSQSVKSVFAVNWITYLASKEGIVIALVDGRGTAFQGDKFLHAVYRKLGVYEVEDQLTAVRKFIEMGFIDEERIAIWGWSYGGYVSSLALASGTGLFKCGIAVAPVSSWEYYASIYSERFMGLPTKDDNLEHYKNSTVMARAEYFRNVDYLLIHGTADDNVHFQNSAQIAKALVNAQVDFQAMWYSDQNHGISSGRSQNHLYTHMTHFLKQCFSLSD
Experimental: (§3) In order to determine the inhibitory activity a FRET-based FAP protease activity assay was established.
25 µL of a 30 µM substrate solution, diluted in assay buffer, was added. […] Four parameter logistic (4PL) curve fitting and pIC50 calculations were performed using ActivityBase software.

Human recombinant FAP [1] = target: T4, Human recombinant FAP (Homo sapiens, UniProt Q12884); assay: FRET-based FAP protease activity assay (human); type: biochemical; set-up: purchased R&D systems 3715-SE; conditions: FRET-peptide substrate, 37°C; for IC50: read-out: pIC50 (Activity) (converted)
T4 sequence (Q12884 1-760): T1 sequence (Q12884 1-760)
Experimental: as §3
25 µL of a 30 µM substrate solution, diluted in assay buffer, was added. […] Four parameter logistic (4PL) curve fitting and pIC50 calculations were performed using ActivityBase software (IDBS).

[2] = target: T5, FAP-expressing human WI-38 fibroblasts (Homo sapiens, UniProt Q12884); assay: Competitive FACS binding assay (displacement of Cy5-labeled FAP inhibitor 3BP-2935); conditions: 3 nM Cy5-labeled 3BP-2935, 4°C, 1 hour
T5 construct: FAP-expressing human WI-38 fibroblasts (ECACC 90020107) were cultured in EMEM; host or cells: WI-38 human fibroblasts
T5 sequence (Q12884 1-760): T1 sequence (Q12884 1-760)
Experimental: In order to determine binding of compounds according to the present invention to FAP-expressing cells, a competitive FACS binding assay was established.
Cells were diluted in FACS buffer to a final concentration of 100.000 cells per ml and 200 µl of the cell suspension are transferred to a u-shaped non-binding 96-well plate (Greiner).
Cell were washed twice with FACS buffer (see above) and resuspended in 200 µl FACS buffer. Cells were analyzed in an Attune NxT flow cytometer (Thermo Fisher Scientific). Median fluorescence intensities (Cy5 channel) was calculated by Attune NxT software and plotted against test compound concentrations. Four parameter logistic (4PL) curve fitting and pIC50 calculations were performed using ActivityBase software.

Recombinant human DPP4 = target: T6, Recombinant human DPP4 (Homo sapiens, UniProt P27487); assay: DPP4 protease activity assay; type: biochemical; conditions: 20 µM GP-AMC substrate
T6 construct: purchased R&D systems 9168-SE
Experimental: as §1, §2

Human recombinant FAP [3] = target: T4, Human recombinant FAP; assay: Surface plasmon resonance assay (Biacore T200, single cycle kinetics); type: binding; conditions: SPR, 25°C
Experimental: Surface plasmon resonance studies were performed using a Biacore™ T200 SPR system (Cytiva, formerly GE Healthcare). Briefly, polarized light is directed towards a gold-labeled sensor surface, and minimum intensity reflected light is detected. The angle of reflected light changes as molecules bind and dissociate. […] Test compounds are contacted with the loaded surface, and a real-time interaction profile with the FAP ligand is recorded in a sensorgram. In real-time, the association and dissociation of a binding interaction is measured, enabling calculation of association and dissociation rate constants and the corresponding affinity constants. Importantly, a background response is generated due to the difference in the refractive indices of the running and sample buffers, as well as unspecific binding of the test compounds to the flow cell surface. This background is measured and subtracted by running the sample on a control flow cell coated with the same density of capture antibody in the absence of immobilized FAP. Furthermore, baseline drift correction of the binding data is performed, which is caused by slow dissociation of the captured FAP from the immobilized antibody. This drift is measured by injecting running buffer through a flow cell with the antibody and FAP immobilized to the sensor surface.
Biacore™ CM5 sensor chips were used. […] A 150 µL aliquot was transferred into plastic vials and placed into the sample rack of the Biacore™ T200 instrument. Amine Coupling Kit Reagent solutions were transferred into plastic vials and placed into the sample rack: 90 µL of 0.4 M 1-ethyl-3-(3-dimethylaminopropyl)carbodiimide (EDC), and 90 µL of 0.1 M N-hydroxysuccinimide (NHS). A 130 µL aliquot of 1 M ethanolamine-HCl, pH 8.5, was transferred into plastic vials and placed into the sample rack. The Biacore™ liquid system was set-up as follows: Separate bottles containing distilled water (1 L), Running Buffer (500 mL), as well as an empty bottle for waste were placed onto the buffer tray. A preinstalled program for immobilization was used, with an immobilization level of 7000 RU. Immobilization was performed at 25°C. The immobilization procedure of anti-FAP antibodies was performed, as described in the Table 5. Table 5: Immobilization protocol for anti-FAP antibodies used on the CM5 sensor chip.
Human recombinant FAP was diluted in Running Buffer to a final concentration of 20 µg/mL. A 100 µL aliquot of human FAP-Working-Solution was transferred into plastic vials and placed into a sample rack. A 0.5 mM Compound-Stock-Solution was prepared by dissolving each compound in DMSO. For each test compound, Compound-Stock-Solutions were diluted in Running Buffer (HBST) at 500 nM and further diluted with HBST-DMSO Buffer (0.1% DMSO). SPR binding analyses for binary complexes were performed in SCK mode at 25°C. Following three SCK measurements, a baseline drift was assessed by injecting running buffer through a flow cell, with the antibody and FAP immobilized to the sensor surface. Table 6: Protocol for assessing the binding kinetics.
For each test compound, SPR raw data in the form of resonance units (RU) were plotted as sensorgrams using the Biacore™ T200 control software. The signal from the blank sensorgram was subtracted from that of the test compound sensorgram (blank corrected). The blank corrected sensorgram was corrected for baseline drift by subtracting the sensorgram of a SCK run without the test compound (running buffer only). The association rate (kon), dissociation rate (koff), dissociation constant (KD), and t1/2 were calculated from Blank-normalized SPR data using the 1:1 Langmuir binding model from the Biacore™ T200 evaluation software. Raw data and fit results were imported as text files in IDBS. The pKD value (negative decadic logarithm of dissociation constant) was calculated in the IDBS excel template.

T6 sequence (P27487 whole entry): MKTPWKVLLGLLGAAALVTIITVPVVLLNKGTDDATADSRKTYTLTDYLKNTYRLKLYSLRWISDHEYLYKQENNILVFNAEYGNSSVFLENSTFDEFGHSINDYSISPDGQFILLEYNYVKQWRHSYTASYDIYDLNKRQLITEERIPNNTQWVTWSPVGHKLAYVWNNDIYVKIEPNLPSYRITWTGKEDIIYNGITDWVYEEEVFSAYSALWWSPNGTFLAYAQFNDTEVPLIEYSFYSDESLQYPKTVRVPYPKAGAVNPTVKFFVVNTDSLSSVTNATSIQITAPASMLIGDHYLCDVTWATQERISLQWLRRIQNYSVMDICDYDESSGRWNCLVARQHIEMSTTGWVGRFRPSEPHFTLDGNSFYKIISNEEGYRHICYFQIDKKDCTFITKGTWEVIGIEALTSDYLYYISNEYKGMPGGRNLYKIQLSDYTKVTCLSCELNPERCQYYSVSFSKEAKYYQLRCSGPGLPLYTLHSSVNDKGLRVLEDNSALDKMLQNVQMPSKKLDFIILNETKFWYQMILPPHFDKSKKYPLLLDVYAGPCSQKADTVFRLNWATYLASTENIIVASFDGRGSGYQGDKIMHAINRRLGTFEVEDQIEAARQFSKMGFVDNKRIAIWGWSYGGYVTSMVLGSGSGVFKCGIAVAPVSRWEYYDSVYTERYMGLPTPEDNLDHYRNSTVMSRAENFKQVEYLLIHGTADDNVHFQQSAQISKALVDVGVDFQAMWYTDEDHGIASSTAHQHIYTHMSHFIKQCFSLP

O=C(O)CN1CCN(CC(=O)O)CCN(CC(=O)N2CCN(CCNC(=O)c3ccc(-c4ccc5nccc(C(=O)NCC(=O)N6C[C@@H](F)C[C@H]6C(=O)c6nc7ccccc7o6)c5c4)cc3)CC2)CCN(CC(=O)O)CC1 [Compound 3BP-4810]
HL (HEK-FAP cells): 38 ± 4 min
pKD (HEK-FAP cells): 8.5 ± 0.1

O=C(O)CN1CCN(CC(=O)O)CCN(CC(=O)N2CCN(CCNC(=O)c3ccc(-c4ccc5nccc(C(=O)NCC(=O)N6CCC[C@H]6C(=O)c6nc7ccccc7o6)c5c4)cn3)CC2)CCN(CC(=O)O)CC1 [Compound 3BP-4811]
HL (HEK-FAP cells): 27 ± 12 min
pKD (HEK-FAP cells): 8.3 ± 0.2

N#C[C@@H]1CC(F)(F)CN1C(=O)CNC(=O)c1ccnc2ccc(OCCCN3CCN(C(=O)CN4CCN(CC(=O)O)CCN(CC(=O)O)CCN(CC(=O)O)CC4)CC3)cc12 [Compound 3BP-2929, reference compound]
HL (HEK-FAP cells): 276 ± 142 min

CN(CCCN1CCN(C(=O)CN2CCN(CC(=O)O)CCN(CC(O)O)CCN(CC(=O)O)CC2)CC1)c1ccc2nccc(C(=O)NCC(=O)N3CC(F)(F)C[C@H]3C#N)c2c1 [Compound 3BP-4200, reference compound]
HL (HEK-FAP cells): 1798 ± 24 min
pKD (HEK-FAP cells): 10.4 ± 0.0

Cc1nc(C(=O)[C@@H]2CCCN2C(=O)CNC(=O)c2ccnc3ccccc23)no1
IC50 (recombinant human PREP): 1.26 nM
IC50 (Recombinant mouse FAP; read-out: pIC50 (mouseFAP) (converted)): 126 nM
IC50 (Human recombinant FAP [1]): 79.4 nM
IC50 [2]: 251 nM

CS(=O)(=O)c1ccc(-c2ccc3c(C(=O)NCC(=O)N4CC(F)(F)C[C@H]4C#N)ccnc3c2)cc1
pIC50 (PREP) (recombinant human PREP): <6
pIC50 (DPP4) (Recombinant human DPP4): <6
pIC50 (Activity) (Human recombinant FAP [1]): 9.1
pIC50 (FACS) [2]: 8.5
pKD (Biacore) (Human recombinant FAP [3]; 1:1 Langmuir binding model): 10
HL [min] (Biacore) (Human recombinant FAP [3]; half-life): 37 min

N#C[C@@H]1CCCN1C(=O)CNC(=O)c1cc[n+]([O-])c2ccccc12
pIC50 (PREP) (recombinant human PREP): 6.3
pIC50 (mouseFAP) (Recombinant mouse FAP): 7.5
pIC50 (DPP4) (Recombinant human DPP4): <6
pIC50 (Activity) (Human recombinant FAP [1]): 7.6
pIC50 (FACS) [2]: 7.1

N#C[C@@H]1CCCN1C(=O)CNC(=O)c1ccnc2cc(-c3ccc(C(=O)O)cc3)ccc12
IC50 (recombinant human PREP): > 1000 nM
IC50 (Recombinant human DPP4; read-out: pIC50 (DPP4) (converted)): > 1000 nM
IC50 (Human recombinant FAP [1]): 2 nM
IC50 [2]: 3.98 nM
